Read-outs that look alike come from different tables or passages of the source.

The subject of data set [1] is A2780 human ovarian carcinoma cells. Briefly: SRB proliferation assay (48 h) on A2780 cells. It counts as cell-based. Conditions: for cytostatic properties in the screen (long-term SRB and short-term MTT assays): A2780 cells, 100 μM-0.0017 μM. As to the method:
The compounds were tested in an assay aiming to assess short term toxicity (methylthiazolyldiphenyl-tetrazolium bromide (MTT) reduction assay, 4 hours) and a long term cytostasis or cytotoxicity (sulphorhodamine B (SRB) proliferation assay, 48 hours) on A2780 human ovarian carcinoma cells.
(§1) SRB accumulation assay assesses protein content in a sample and was used to assess cell proliferation. SRB accumulation assay was performed similarly to (Fodor et al., 2016) as follows. Cells were seeded in 96-well plates. The next day cells were treated with the compounds for 48 hours in the concentrations indicated in a cell incubator. At the end of treatment cells were fixed with 10% trichloroacetic acid (TCA). Fixed cells were stained with SRB (0.4 m/V % dissolved in 1% acetic acid) for 60 minutes. Fixed cells were washed in 1% acetic acid 3 times; acetic acid was removed and cells were left to dry. Protein-bound SRB was released by adding 100 μl 10 mM Tris base. Plates were measured in a plate photometer (Thermo Scientific Multiscan GO spectrophotometer, Waltham, MA, USA) at 540 nm. On each plate wells were designed to contain untreated cells. In calculations the readings for these wells was considered as 1 and all readings were expressed relative to these values.
Statistical analysis was performed using 8.0.1 version of Graphpad Prism. Values were tested for normal distribution using the D'Agostino and Pearson normality test. When necessary, values were log normalized or were normalized using the Box-Cox normalization method (Box and Cox, 1964), as indicated in the figure captions.
On the technique in general: In SRB staining, fixed cells bind dye roughly in proportion to their protein.

Data set [2] has as its system human primary skin fibroblasts. The data set is described as follows: SRB proliferation assay (48 h) on primary fibroblasts. To be noted: for Fibroblast Hill slope / IC50: SRB 48 h, N/A = cannot be calculated/no effect; for IC50: read-out: Fibroblast IC50. The format is cell-based. As to the method: (§2) […]. All compounds were tested on two ovarian cancer cell lines (A2780 and ID8) and on human primary skin fibroblasts (non-transformed, primary cells) in MTT and SRB assays. MTT assays were performed 4 hours post-treatment and indicated rapid toxicity of the compounds, while SRB assays were performed 2 days post-treatment and represent long term cytostasis or toxicity.
as §1
(§3) Statistical analysis was performed using 8.0.1 version of Graphpad Prism. Values were tested for normal distribution using the D'Agostino and Pearson normality test. When necessary, values were log normalized or were normalized using the Box-Cox normalization method (Box and Cox, 1964), as indicated in the figure captions. Nonlinear regression was performed using the built-in “[Inhibitor] vs. response—Variable slope (four parameters), least square fit” utility of Graphpad that yielded IC50 and Hill slope values.

Data set [3] in a line: Solubility / precipitation in the test medium. The format is physicochemical.
The subject of the next data set is ID8 ovarian cancer cells. Briefly: SRB proliferation assay (48 h) on ID8 cells. Conditions: SRB 48 h; for IC50: N/A = cannot be calculated/no effect. It counts as cell-based. As to the method: as §2, §1, §3
In data set [4] the test system is cisplatin-resistant A2780 cell line. The data set is described as follows: SRB proliferation assay (48 h) on cisplatin-resistant A2780 cells. The format is cell-based, human. Here is the method: In this experiment, 6×10^3 cisplatin-resistant A2780 cells were plated to 96 well plates. Cells were treated with the compounds in the concentrations indicated for either 4 hours for an MTT assay or for 48 hours for an SRB assay. Data is represented as average ±SD, from three biological replicates; individual assays were performed in duplicates. Values were normalized for vehicle treated cells, absorbance for vehicle treated cells equals to 1. Each compound was assessed individually. Normality was assessed using the Shapiro-Wilk test. […] Statistical significance was assessed using One-way ANOVA test comparing all points to the smallest concentration. Nonlinear regression was performed on the results of the SRB assay datasets.
Cisplatin resistant cells underwent selection (1 μM cisplatin) once a week for 3 days before plating for any assay.
as §1

[5] abbreviates: SRB 48 h, nonlinear regression, N/A = cannot be calculated/no effect, read-out: A2780 IC50.

With “2-(2′,3′,4′,6′-Tetra-O-benzoyl-β-D-glucopyranosyl)-5-(pyridin-2-yl)-1,3,4-oxadiazole [Complex L-4]”, in data set [1] (48 h), the “A2780 SRB Max. (maximal inhibition)” value was found to be 26.9%.

As for `O=C(OC[C@H]1O[C@@H](n2cc(-c3ccccn3)nn2)[C@H](OC(=O)c2ccccc2)[C@@H](OC(=O)c2ccccc2)[C@@H]1OC(=O)c1ccccc1)c1ccccc1` [Complex L-2a, 1-(2′,3′,4′,6′-Tetra-O-benzoyl-β-D-glucopyranosyl)-4-(pyridin-2-yl)-1,2,3-triazole], the “cytostatic effect in long-term SRB assays on A2780 and ID8 cells, in words” value (shortened to “cytostatic effect”) in data set [1] (48 h) is given as “none of the corresponding ligands (L-2a, L-4, L-6, L-8) had cytostatic properties”. Further, the “cytostatic properties in the screen (long-term SRB and short-term MTT assays)” value (“cytostatic properties in the screen” for short) in data set [1] is “no biological activity”. For the same compound, in data set [2], the “effect on primary human fibroblasts (SRB), in words” value (“effect on primary human fibroblasts” for short) is “no effect”.

With `O=C(OC[C@H]1O[C@@H](n2cc(-c3ccc4ccccc4n3)nn2)[C@H](OC(=O)c2ccccc2)[C@@H](OC(=O)c2ccccc2)[C@@H]1OC(=O)c1ccccc1)c1ccccc1` [Complex L-2b, 1-(2′,3′,4′,6′-Tetra-O-benzoyl-β-D-glucopyranosyl)-4-(quinolin-2-yl)-1,2,3-triazole], the “cytostatic effect” value in data set [1] (48 h) is given as “only little cytostatic activity”.

On to `O=C(OC[C@H]1O[C@@H](c2nnc(-c3ccccn3)o2)[C@H](OC(=O)c2ccccc2)[C@@H](OC(=O)c2ccccc2)[C@@H]1OC(=O)c1ccccc1)c1ccccc1` [Complex L-4, 2-(2′,3′,4′,6′-Tetra-O-benzoyl-β-D-glucopyranosyl)-5-(pyridin-2-yl)-1,3,4-oxadiazole], for which, in data set [1] (48 h), the “cytostatic effect” value is “none of the corresponding ligands (L-2a, L-4, L-6, L-8) had cytostatic properties”. For the same compound, the “cytostatic properties in the screen” value in data set [1] is recorded as “no biological activity”. Further, in data set [2], the “effect on primary human fibroblasts” value is given as “no effect”.

Take `CC(=O)OC[C@H]1O[C@@H](c2nnc(-c3ccccn3)o2)[C@H](OC(C)=O)[C@@H](OC(C)=O)[C@@H]1OC(C)=O` [Complex L-5, 2-(2′,3′,4′,6′-Tetra-O-acetyl-β-D-glucopyranosyl)-5-(pyridin-2-yl)-1,3,4-oxadiazole]: in data set [1] (48 h), the “A2780 SRB Max. (maximal inhibition)” value is on record as 28.5%.

`O=C(O[C@@H]1[C@@H](OC(=O)c2ccccc2)[C@H](c2nnc(-c3ccccn3)o2)OC[C@H]1OC(=O)c1ccccc1)c1ccccc1` [Complex L-6, 2-(2′,3′,4′-Tri-O-benzoyl-β-D-xylopyranosyl)-5-(pyridin-2-yl)-1,3,4-oxadiazole]: the “cytostatic effect” value in data set [1] (48 h) is recorded as “none of the corresponding ligands (L-2a, L-4, L-6, L-8) had cytostatic properties”. Further, the “cytostatic properties in the screen” value in data set [1] was “no biological activity”. For the same compound, in data set [2], the “effect on primary human fibroblasts” value is “no effect”. For the same compound, the “solubility of the free ligand for testing” value in data set [3] is reported as “insoluble”.

Consider `O=C(OC[C@H]1O[C@@H](c2nnc(-c3ccccn3)o2)[C@H](OC(=O)c2ccccc2)[C@@H](OC(=O)c2ccccc2)[C@H]1OC(=O)c1ccccc1)c1ccccc1` [Complex L-8, 2-(2′,3′,4′,6′-Tetra-O-benzoyl-β-D-galactopyranosyl)-5-(pyridin-2-yl)-1,3,4-oxadiazole], for which the “cytostatic effect” value in data set [1] (48 h) is “none of the corresponding ligands (L-2a, L-4, L-6, L-8) had cytostatic properties”. The “cytostatic properties in the screen” value in data set [1] is recorded as “no biological activity”. Further, the “effect on primary human fibroblasts” value in data set [2] was “no effect”.

Turning to `c1ccc(-n2cc(-c3ccccn3)nn2)cc1` [Complex L-13, 1-phenyl-4-(pyridine-2-yl)-1,2,3-triazole], in data set [1] (48 h), the “cytostatic activity on A2780 cells in SRB assays, in words” value is reported as “None of the free ligands, L-13 or L-14 had cytostatic activity”.

For `c1ccc(-c2nnc(-c3ccccn3)o2)cc1` [Complex L-14, 2-phenyl-5-(pyridine-2-yl)-1,3,4-oxadiazole], the “cytostatic activity on A2780 cells in SRB assays, in words” value in data set [1] (48 h) is on record as “None of the free ligands, L-13 or L-14 had cytostatic activity”.

In the case of `CCCCCCCC(=O)OC[C@H]1O[C@@H](n2cc(-c3ccccn3)nn2)[C@H](OC(=O)CCCCCCC)[C@@H](OC(=O)CCCCCCC)[C@@H]1OC(=O)CCCCCCC` [L-C7, 1-(2′,3′,4′,6′-Tetra-O-octanoyl-β-D-glucopyranosyl)-4-(pyridin-2-yl)-1,2,3-triazole], the “solubility of the free ligand for testing” value in data set [3] was “insoluble”.

As for `CNCc1ccc(-c2[nH]c3cc(F)cc4c3c2CCNC4=O)cc1` [Rucaparib, rucaparib], in data set [1] (3 μM, SRB 48 h), the “cell proliferation, rucaparib alone” value is reported as “reduced cell proliferation”.

As to `[NH2][Pt]1([NH2])[O]C(=O)C2(CCC2)C(=O)[O]1` [carboplatin], the “effect on primary human fibroblasts” value in data set [2] (48 h) was “no effect”.

For `N.N.[Cl][Pt][Cl]` [cisplatin], the “A2780 SRB Hill” value in data set [1] (48 h) stood at 1.20. Moreover, the IC50 (commonly the concentration at which inhibition is half-maximal) is 1210 nM in data set [1] (48 h, read-out: A2780 SRB IC50); 1210 nM in data set [1] (setting [5]); 1210 nM in data set [1] (SRB assay, 48 h, read-out: IC50 value on (cisplatin-sensitive) A2780 cells); 10.8 µM in the data set on ID8 ovarian cancer cells; 11.9 µM in data set [2]; 16.5 µM in data set [4] (SRB assay, 48 h). In addition, in data set [1] (SRB 48 h, nonlinear regression), the “A2780 Hill slope” value was 1.20. For the same compound, the “ID8 Hill slope” value with ID8 ovarian cancer cells is recorded as 0.99. In addition, the “Fibroblast Hill slope” value in data set [2] is given as 1.53. For the same compound, the “cisplatin resistant A2780 SRB Max. (maximal inhibition)” value in data set [4] (48 h) came out at 100%. Moreover, in data set [4] (SRB assay), the “fold change of IC50, cisplatin resistant vs. cisplatin sensitive A2780” value worked out at 13.6 fold.

As for `O=C1[O][Pt]2([NH][C@@H]3CCCC[C@H]3[NH]2)[O]C1=O` [oxaliplatin], the “A2780 Hill slope” value in data set [1] (SRB 48 h, nonlinear regression) is 1.27. Moreover, the IC50 in data set [1] (setting [5]) was 120 nM. Further, in the data set on ID8 ovarian cancer cells, the “ID8 Hill slope” value was 1.58 and the IC50 was 4.59 µM. For the same compound, the “effect on primary human fibroblasts” value in data set [2] (48 h) is “no effect”. In addition, in data set [2], the “Fibroblast Hill slope” value is 0.37 and the IC50 was 0.83 µM.

The values are drawn from patent publication US20250163088A1, “HALF-SANDWICH TRANSITION METAL COMPLEXES AND USES THEREOF” (DEBRECENI EGYETEM, priority 2021, published 2025).
